According to ChEMBL document CHEMBL4813912, “Progress in the Development of Small Molecular Inhibitors of Focal Adhesion Kinase (FAK)” (J Med Chem, 2020):
Each block holds one compound with its values, some of them ahead of it.

Columns and labels:
BT-474 = test: Antiproliferative activity against human BT-474 cells incubated for 72 hrs by MTT assay; type: functional, cell-based; conditions: BT-474, 72 h
MDA-MB-231 = test: Antiproliferative activity against human MDA-MB-231 cells incubated for 72 hrs by MTT assay; type: functional, cell-based; conditions: MDA-MB-231, 72 h
T47D = test: Antiproliferative activity against human T-47D cells incubated for 72 hrs by MTT assay; type: functional, cell-based
MCF7 = test: Antiproliferative activity against human MCF7 cells incubated for 72 hrs by MTT assay; type: functional, cell-based; conditions: MCF7, 72 h
Focal adhesion kinase 1 [1] = molecular target: T1, Focal adhesion kinase 1 (Homo sapiens, UniProt Q05397); test: Inhibition of FAK in human U87MG cells assessed as reduction in phosphorylation at Y397 residue incubated for 30 mins by Western blot analysis
Focal adhesion kinase 1 [2] = molecular target: T1, Focal adhesion kinase 1; test: Inhibition of FAK in human A549 cells assessed as reduction in phosphorylation at Y397 residue incubated for 30 mins by Western blot analysis
Focal adhesion kinase 1 [3] = molecular target: T1, Focal adhesion kinase 1; test: Inhibition of FAK in human OVCAR8 cells assessed as reduction in phosphorylation at Y397 residue incubated for 30 mins by Western blot analysis
[4] = molecular target: von Hippel-Lindau disease tumor suppressor/Focal adhesion kinase 1 (Homo sapiens) (UniProt Q05397+P40337); test: Induction of VHL-mediated FAK degradation in human PC3 cells at 10 to 10000 nM incubated for 24 hrs by Western blot analysis relative to control; type: cell-based; conditions: PC-3, dose 10-10000 nM
[5] = molecular target: Protein-tyrosine kinase 2-beta (Homo sapiens, UniProt Q14289); test: Inhibition of pyk2 (unknown origin)
OVCAR-3 = test: Cytotoxicity against human OVCAR-3 cells in presence of metformin and carboplatin relative to control; type: functional
Focal adhesion kinase 1 [6] = molecular target: T1, Focal adhesion kinase 1
Description: Inhibition of FAK (unknown origin) (410 to 689 residues) assessed as reduction in poly(Glu-Tyr) phosphorylation using poly (Glu,Tyr) as substrate by ELISA-based assay

RD = test: Cytotoxicity against human RD cells incubated for 96 hrs by DIMSCAN method; type: functional, cell-based

T1 sequence (Q05397 whole entry): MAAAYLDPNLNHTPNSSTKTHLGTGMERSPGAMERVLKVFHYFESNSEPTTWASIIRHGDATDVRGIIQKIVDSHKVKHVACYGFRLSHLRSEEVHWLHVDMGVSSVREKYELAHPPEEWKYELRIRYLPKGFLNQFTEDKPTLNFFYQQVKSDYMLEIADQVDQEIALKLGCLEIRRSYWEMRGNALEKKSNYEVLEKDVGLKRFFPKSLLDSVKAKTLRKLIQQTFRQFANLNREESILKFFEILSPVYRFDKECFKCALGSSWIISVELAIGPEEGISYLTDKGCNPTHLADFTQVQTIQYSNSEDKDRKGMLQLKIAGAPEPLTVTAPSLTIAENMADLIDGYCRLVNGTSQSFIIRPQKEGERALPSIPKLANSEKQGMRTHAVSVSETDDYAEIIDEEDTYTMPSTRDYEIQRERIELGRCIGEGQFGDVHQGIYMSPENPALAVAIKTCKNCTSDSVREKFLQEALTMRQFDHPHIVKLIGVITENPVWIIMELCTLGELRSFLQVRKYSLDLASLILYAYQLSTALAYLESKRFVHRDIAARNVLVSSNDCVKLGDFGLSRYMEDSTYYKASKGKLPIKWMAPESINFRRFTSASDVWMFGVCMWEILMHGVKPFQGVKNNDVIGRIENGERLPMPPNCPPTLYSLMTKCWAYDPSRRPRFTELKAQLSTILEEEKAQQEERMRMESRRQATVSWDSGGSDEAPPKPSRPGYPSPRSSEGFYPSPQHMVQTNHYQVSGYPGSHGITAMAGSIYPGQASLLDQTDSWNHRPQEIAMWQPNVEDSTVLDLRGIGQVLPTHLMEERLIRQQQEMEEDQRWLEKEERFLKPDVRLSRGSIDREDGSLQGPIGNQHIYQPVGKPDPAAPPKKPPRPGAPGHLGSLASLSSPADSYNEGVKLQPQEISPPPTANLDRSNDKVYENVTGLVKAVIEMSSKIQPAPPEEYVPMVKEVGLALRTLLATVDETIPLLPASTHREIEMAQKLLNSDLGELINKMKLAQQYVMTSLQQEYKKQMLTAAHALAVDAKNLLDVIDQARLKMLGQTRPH
Sequence of Protein-tyrosine kinase 2-beta (Q14289 whole entry): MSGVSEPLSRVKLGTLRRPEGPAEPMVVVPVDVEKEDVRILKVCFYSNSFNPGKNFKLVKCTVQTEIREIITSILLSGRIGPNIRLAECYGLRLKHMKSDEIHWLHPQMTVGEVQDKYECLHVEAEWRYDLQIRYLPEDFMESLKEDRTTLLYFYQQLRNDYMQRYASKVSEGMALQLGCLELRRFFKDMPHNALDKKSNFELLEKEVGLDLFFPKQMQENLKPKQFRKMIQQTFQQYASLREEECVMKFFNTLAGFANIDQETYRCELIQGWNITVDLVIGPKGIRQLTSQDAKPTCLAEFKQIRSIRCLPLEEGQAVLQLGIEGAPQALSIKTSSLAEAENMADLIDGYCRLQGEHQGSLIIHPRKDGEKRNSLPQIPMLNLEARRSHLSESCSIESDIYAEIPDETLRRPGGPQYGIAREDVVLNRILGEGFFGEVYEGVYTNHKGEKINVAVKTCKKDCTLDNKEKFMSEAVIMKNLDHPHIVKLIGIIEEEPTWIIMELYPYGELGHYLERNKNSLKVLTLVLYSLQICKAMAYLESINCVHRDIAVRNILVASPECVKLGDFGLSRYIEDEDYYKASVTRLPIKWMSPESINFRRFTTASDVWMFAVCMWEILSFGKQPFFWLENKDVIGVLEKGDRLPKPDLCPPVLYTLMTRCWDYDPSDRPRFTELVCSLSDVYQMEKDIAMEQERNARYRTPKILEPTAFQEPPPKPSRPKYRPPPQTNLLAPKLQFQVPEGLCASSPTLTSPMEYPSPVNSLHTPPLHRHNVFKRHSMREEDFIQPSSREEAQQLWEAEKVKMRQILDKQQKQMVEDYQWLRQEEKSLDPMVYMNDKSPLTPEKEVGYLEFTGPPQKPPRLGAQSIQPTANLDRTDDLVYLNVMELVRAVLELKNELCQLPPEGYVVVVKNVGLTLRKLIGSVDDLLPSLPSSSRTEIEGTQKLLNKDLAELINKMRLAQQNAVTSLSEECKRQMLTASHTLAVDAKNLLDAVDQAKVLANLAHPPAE
Sequence of von Hippel-Lindau disease tumor suppressor/Focal adhesion kinase 1 (Homo sapiens) (P40337 whole entry partner): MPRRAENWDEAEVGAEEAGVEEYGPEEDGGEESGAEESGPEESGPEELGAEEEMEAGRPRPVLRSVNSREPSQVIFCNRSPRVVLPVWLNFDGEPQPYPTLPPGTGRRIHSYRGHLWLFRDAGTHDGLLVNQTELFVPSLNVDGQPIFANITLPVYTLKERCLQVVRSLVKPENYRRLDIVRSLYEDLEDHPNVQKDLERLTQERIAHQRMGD
Sequence of von Hippel-Lindau disease tumor suppressor/Focal adhesion kinase 1 (Homo sapiens) (Q05397 2-1052 limits assumed): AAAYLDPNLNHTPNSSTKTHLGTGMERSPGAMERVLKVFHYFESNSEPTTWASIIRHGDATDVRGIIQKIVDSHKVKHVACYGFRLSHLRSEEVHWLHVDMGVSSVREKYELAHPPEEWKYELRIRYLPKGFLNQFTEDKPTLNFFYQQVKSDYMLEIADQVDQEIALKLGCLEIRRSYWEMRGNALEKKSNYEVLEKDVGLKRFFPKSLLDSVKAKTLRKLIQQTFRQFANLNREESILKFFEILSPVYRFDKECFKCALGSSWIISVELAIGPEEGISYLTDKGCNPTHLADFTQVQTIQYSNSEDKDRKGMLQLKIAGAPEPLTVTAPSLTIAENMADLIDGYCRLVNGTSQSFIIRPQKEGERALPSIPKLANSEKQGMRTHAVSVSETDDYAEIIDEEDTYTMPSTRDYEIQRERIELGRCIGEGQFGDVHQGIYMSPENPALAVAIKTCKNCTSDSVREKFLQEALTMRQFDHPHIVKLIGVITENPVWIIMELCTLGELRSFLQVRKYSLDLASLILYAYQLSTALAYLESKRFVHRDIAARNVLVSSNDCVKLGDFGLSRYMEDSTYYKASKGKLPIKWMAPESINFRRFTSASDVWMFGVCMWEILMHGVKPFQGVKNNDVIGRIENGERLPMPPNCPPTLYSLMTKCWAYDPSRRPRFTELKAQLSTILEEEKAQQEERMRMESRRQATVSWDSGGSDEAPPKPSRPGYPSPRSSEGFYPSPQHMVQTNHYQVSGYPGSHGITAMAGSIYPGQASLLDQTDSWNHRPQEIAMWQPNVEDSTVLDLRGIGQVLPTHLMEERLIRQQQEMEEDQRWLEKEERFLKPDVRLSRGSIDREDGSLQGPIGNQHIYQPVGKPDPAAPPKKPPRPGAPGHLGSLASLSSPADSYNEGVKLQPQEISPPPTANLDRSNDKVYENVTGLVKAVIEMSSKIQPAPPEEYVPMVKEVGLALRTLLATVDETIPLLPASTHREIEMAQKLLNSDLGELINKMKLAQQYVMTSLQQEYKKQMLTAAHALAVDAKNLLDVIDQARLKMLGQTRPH

SMILES: Cc1ncsc1-c1ccc(CNC(=O)[C@@H]2C[C@@H](O)CN2C(=O)[C@@H](NC(=O)CCOCCOc2ccc(Nc3ncc(C(F)(F)F)c(NCc4cccc(N(C)S(C)(=O)=O)c4)n3)cc2)C(C)(C)C)cc1
- Emax [4]: 99%

SMILES: CS(=O)(=O)c1cccc(CNc2nc(Nc3ccc4c(c3)CC(=O)N4)ncc2C(F)(F)F)c1
- IC50 [5]: 1000 nM
- Activity (OVCAR-3): 94%
- IC50 (Focal adhesion kinase 1 [6]): 4 nM

SMILES: CNC(=O)c1ccccc1Nc1cc(Nc2ccc(N3CCOCC3)cc2OC)ncc1C(F)(F)F [VS-4718]
- IC50 (RD): 1220 nM

Results, then the compound that gave them:

- IC50 (BT-474): 20100 nM
- IC50 (MDA-MB-231): 7500 nM
- IC50 (T47D): 25100 nM
- IC50 (MCF7): 15200 nM
SMILES: CC1=CC[C@@]2(O)[C@H](CC[C@]2(C)O)C(C)(C)[C@@H]1CC[C@H]1[C@]2(C)CC[C@H](OC(=O)c3ccc(Cl)c(Cl)c3)C(C)(C)O[C@H]2CC[C@@]1(C)O

- IC50 (Focal adhesion kinase 1 [1]): 8.5 nM
- IC50 (Focal adhesion kinase 1 [2]): 12 nM
- IC50 (Focal adhesion kinase 1 [3]): 15 nM
SMILES: CONC(=O)c1ccccc1Nc1cc(Nc2cc(C)nn2C(C)C)ncc1Cl [GSK-2256098]
